Experimental data: patent US6607710B1, “Bisphosphonic acid derivative and compound thereof labeled with radioactive nuclide” (Nihon Medi-Physics Co., Ltd., priority 1999, dated 2003)
Several values for one entry are separate records, joined by “and”; a condition that tells them apart may be missing. Equal entries are not always repeated.

Assay: Determination of biodistribution of radiolabeled compounds in rats after caudal vein administration
Assay type: in vivo, SD strain rats
Conditions: for Biodistribution, Blood / Biodistribution, Femur and Tibia / Biodistribution, Kidney / Biodistribution, Liver / Biodistribution, Urine: SD-rats female, n = 3, caudal vein
Description: SD strain rats (female, age in 8-9 weeks, n=3) were used with free access to water and food ad libitum, and anesthetized with Ravonal, (a trade name of thiopental sodium, manufactured by Tanabe Seiyaku Co., Ltd.), then the test sample solution was administered to the caudal vein. The test rats were killed by bleeding during the blood samples were taken from the abdominal aorta at each times of sampling after the administration. The organs of interest were excised. After measured the weights of these samples, the radioactivities were determined, and biodistributions were calculated. The results of determination of biodistribution relating to the labeled compounds obtained in Examples 1, 2 and 4 and the labeled compounds of methanediphosphonic acid (MDP) used as reference examples are shown in Tables 3 to 7. Determination results are indicated as %ID/g, and determination results of urine are indicated as %ID.

[1] = 15 Minutes after administration
[2] = 120 Minutes after administration

| Structure (SMILES) | Biodistribution, Blood [1] | Biodistribution, Femur and Tibia [1] | Biodistribution, Kidney [1] | Biodistribution, Liver [1] | Biodistribution, Urine [1] | Biodistribution, Blood [2] | Biodistribution, Femur and Tibia [2] | Biodistribution, Kidney [2] | Biodistribution, Liver [2] | Biodistribution, Urine [2] | change of accumulation level to the bone (in words) (SD-rats, from 15 minutes to 120 minutes after the administration) | accumulation to the bone (in words) (SD-rats, summary of Tables 3-8) | blood clearance (in words) (SD-rats, summary of Tables 3-8) | urinary excretion (in words) (SD-rats, summary of Tables 3-8) |
| --- | --- | --- | --- | --- | --- | --- | --- | --- | --- | --- | --- | --- | --- | --- |
| O=C(NCC(P(=O)(O)O)P(=O)(O)O)c1ccccc1I | 0.717 ± 0.159 % ID/g | 3.423 ± 0.302 % ID/g | 2.751 ± 0.951 % ID/g | 0.495 ± 0.078 % ID/g | 19.55 ± 0.72 % ID | 0.042 ± 0.006 % ID/g | 3.714 ± 0.474 % ID/g | 1.070 ± 0.539 % ID/g | 0.380 ± 0.037 % ID/g | 41.54 ± 4.19 % ID | did not significantly vary | accumulated to the bone quickly | relatively rapid | rapidly excreted into urine |
| O=C(O)CNC(=O)CC(P(=O)(O)O)P(=O)(O)O (99mTc complex, metal not drawn) [N-(3,3-diphosphonopropionyl)glycine] | 0.599 ± 0.103 % ID/g | 3.014 ± 0.377 % ID/g | 3.225 ± 0.543 % ID/g | 0.159 ± 0.009 % ID/g | 29.69 ± 0.14 % ID | 0.089 ± 0.037 % ID/g | 3.552 ± 0.327 % ID/g | 0.762 ± 0.279 % ID/g | 0.068 ± 0.003 % ID/g | 48.15 ± 1.50 % ID |  |  |  |  |
| O=C(O)CN(CCN(CC(=O)O)CC(=O)O)CCN(CC(=O)O)CC(=O)NCC(P(=O)(O)O)P(=O)(O)O [3,6-bis(carboxymethyl)-9-(((2,2-diphosphonoethyl)carbamoyl)m] [3,6-bis(carboxymethyl)-9-(((2,2-diphosphonoethyl)carbamoyl)methyl)-3,6,9-triazaundecanedicarboxylic acid] | 0.519 ± 0.025 % ID/g and 0.621 ± 0.239 % ID/g and 0.463 ± 0.056 % ID/g | 2.777 ± 0.311 % ID/g and 2.417 ± 0.495 % ID/g and 2.643 ± 0.182 % ID/g |  |  | 26.04 ± 9.29 % ID and 28.64 ± 5.55 % ID and 37.996 ± 5.927 % ID |  | 2.739 ± 0.385 % ID/g and 3.089 ± 0.340 % ID/g and 2.922 ± 0.187 % ID/g |  |  | 40.31 ± 9.02 % ID and 54.91 ± 1.96 % ID and 54.927 ± 4.073 % ID |  |  |  |  |
